Data: patent publication US5466675A, “Immunological activity of rhamnolipids” (priority 1992, dated 1995)

Assays:
[1] = tested on: sheep red blood cell (SRBC) hemagglutination; experiment: immunosuppression (humoral): sheep red blood cell (SRBC) hemagglutination; format: in vivo, mouse (ICR, female)
Description: Groups of 6 mice were sensitized by the IV injection of 0.2 ml of a 2% SRBC suspension. On the 9th day following sensitization, blood samples were withdrawn from the orbital sinus and equal parts of complement inactivated serum from the group of 6 mice were pooled to yield a single 0.25 ml sample. Serial 2-fold dilutions were then carried out 10 times in the presence of added complement. […] Serum titers of less than 16 or greater than 128 are considered significant and indicate possible immunosuppressant and immunostimulant activity, respectively.
For immunostimulant activity, test substance or vehicle was administered i.p. to groups of mice for 3 consecutive days, and sensitized to SRBCs 2 hours after the third (last) injection. For immunosuppressant activity, test substance or vehicle was administered i.p. to groups of mice for 3 consecutive days beginning 2 hours after sensitization to SRBCs.

alpha-amylase = experiment: enzyme inhibition, alpha-amylase; format: biochemical
Description: (§1) Rhamnolipid (II) was tested in vitro against a wide array of enzymes.
The following enzymes were inhibited at the various rhamnolipid concentrations indicated:
(§2) All enzyme assays were done spectrophotometrically by computer linked automatic microplate reader (Labsystem Multiskan) and Diode Array spectrophotometer (Perkin Elmer).

alpha-chymotrypsin = experiment: enzyme inhibition, alpha-chymotrypsin; format: biochemical
Description: as §1, §2

Candida albicans [2] = experiment: immunorestoration: immunosuppression with cyclophosphamide and infection with Candida albicans; format: in vivo, mouse (ICR, female); settings: for Survivor No.: n = 10
From the text: […] One day after the last immunosuppressant dose, the mice were challenged with a suspension of C. albicans sufficient to result in 90 to 100 percent mortality within 10 days in the vehicle treated control group. A greater than 30 percent survival for any drug treated group is considered significant, and possibly a result of immunorestorant activity.

Candida albicans [3] = experiment: immunomodulation: infection with Candida albicans; format: in vivo, mouse (ICR, female); settings: for Survivor No.: n = 10
Description: The test compound or vehicle was administered i.p. to groups of 10 mice 1 hour before IV, challenge with suspension of C. albicans sufficient to result in 90 to 100% mortality within 10 days in the vehicle treated control group. A greater than 30 percent survival for any treated group is considered very significant, and possibly a result of immunomodulation, while an increase of 20% is considered a moderate immunomodulation activity.

[4] = range-finding study phase (single intravenous dose); settings: mouse, in vivo, iv
mice C57B1/6 = experiment: as above
[5] = tested on: tissue plasminogen activator (t-PA) released by human umbilical cord venous endothelial cells; experiment: tissue plasminogen activator release; format: cell-based
[6] = IP 0.1 × 3 mg/kg + cyclophosphamide
[7] = IP 1 × 3 mg/kg + cyclophosphamide
[8] = IP 10 × 3 mg/kg + cyclophosphamide
[9] = IP 100 × 3 mg/kg + cyclophosphamide
[10] = fourth day after application, IV

## CCCCCCCC(CC(=O)O)OC(=O)CC(CCCCCCC)O[C@@H]1O[C@@H](C)[C@H](O)[C@@H](O)[C@H]1O[C@@H]1O[C@@H](C)[C@H](O)[C@@H](O)[C@H]1O (stereo partly drawn) [Rhamnolipid (II), (alpha-L-rhamnopyranosyl-(1,2)alpha-L-rhamnopyranosyl)-3-hydroxydecanoyl-3-hydroxydecanoic acid]
[1]; IP 0.1 × 3 mg/kg
  SERUM TITER (Reciprocal Serum Dilution): 32
[1]; IP 1 × 3 mg/kg
  SERUM TITER (Reciprocal Serum Dilution): 32
[1]; IP 10 × 3 mg/kg
  SERUM TITER (Reciprocal Serum Dilution): 128
[1]; IP 100 × 3 mg/kg
  SERUM TITER (Reciprocal Serum Dilution): 16
  died on Day 3: 2/6
alpha-amylase
  concentration at which the enzyme was inhibited: 1 mg/mL
alpha-chymotrypsin
  effect on enzyme: no effect
Candida albicans [2]; [6]
  Death, days post-inoculum 0-1: 2 #/10 Mice
  Death, days post-inoculum 2-3: 1 #/10 Mice
  Death, days post-inoculum 4-6: 1 #/10 Mice
  Death, days post-inoculum 7-9: 2 #/10 Mice
  Response Inc. %: 20%
  Survivor No.: 4
Candida albicans [2]; [7]
  Death, days post-inoculum 0-1: 2 #/10 Mice
  Death, days post-inoculum 2-3: 2 #/10 Mice
  Death, days post-inoculum 4-6: 1 #/10 Mice
  Death, days post-inoculum 7-9: 1 #/10 Mice
  Response Inc. %: 20%
  Survivor No.: 4
Candida albicans [2]; [8]
  Death, days post-inoculum 0-1: 2 #/10 Mice
  Death, days post-inoculum 2-3: 1 #/10 Mice
  Death, days post-inoculum 4-6: 1 #/10 Mice
  Death, days post-inoculum 7-9: 0 #/10 Mice
  Response Inc. %: 40%
  Survivor No.: 6
Candida albicans [2]; [9]
  Death, days post-inoculum 0-1: 1 #/10 Mice
  Death, days post-inoculum 2-3: 1 #/10 Mice
  Death, days post-inoculum 4-6: 1 #/10 Mice
  Death, days post-inoculum 7-9: 0 #/10 Mice
  Response Inc. %: 50%
  Survivor No.: 7
Candida albicans [2]; summary, no dose stated
  in vivo immunorestoration activity: very strong
Candida albicans [3]; 10 mg/kg and 1 mg/kg
  immunomodulation activity: moderate activity
Candida albicans [3]; IP 0.1 × 3 mg/kg
  Death, days post-inoculum 0-1: 3 #/10 Mice
  Death, days post-inoculum 2-3: 4 #/10 Mice
  Death, days post-inoculum 4-6: 1 #/10 Mice
  Death, days post-inoculum 7-9: 0 #/10 Mice
  Response Inc. %: 0%
  Survivor No.: 2
Candida albicans [3]; IP 1 × 3 mg/kg
  Death, days post-inoculum 0-1: 2 #/10 Mice
  Death, days post-inoculum 2-3: 3 #/10 Mice
  Death, days post-inoculum 4-6: 1 #/10 Mice
  Death, days post-inoculum 7-9: 0 #/10 Mice
  Response Inc. %: 20%
  Survivor No.: 4
Candida albicans [3]; IP 10 × 3 mg/kg
  Death, days post-inoculum 0-1: 0 #/10 Mice
  Death, days post-inoculum 2-3: 5 #/10 Mice
  Death, days post-inoculum 4-6: 1 #/10 Mice
  Death, days post-inoculum 7-9: 0 #/10 Mice
  Response Inc. %: 20%
  Survivor No.: 4
Candida albicans [3]; IP 100 × 3 mg/kg
  Death, days post-inoculum 0-1: 6 #/10 Mice
  Death, days post-inoculum 2-3: 4 #/10 Mice
  Death, days post-inoculum 4-6: 0 #/10 Mice
  Death, days post-inoculum 7-9: 0 #/10 Mice
  Response Inc. %: 0%
  Survivor No.: 0
Candida albicans [3]; summary, no dose stated
  in vivo immunomodulation activity: moderate
[4]
  LD50: 105 mg/kg
Mice C57B1/6; IV application
  single dose toxicity: 7.5 mg/kg
Mice C57B1/6; [10]
  lymphocytes: significant decrease
  neutrophils: significant increase
Mice C57B1/6; observation period, IV single dose
  behavior and appearance of treated mice: no changes
Mice C57B1/6; single intravenous dose
  lower bracket dose (LBD): 67.5 mg/kg
  upper bracket dose (UBD): 127.5 mg/kg
[5]; 0.1 mg/ml, PMA induced
  t-PA release induced by PMA: slightly inhibited
[5]; basal
  basal t-PA release: no effect
